# Experimental data published in patent US20150111262A1, “METHODS AND MATERIALS FOR PRODUCING FIVE CARBON BUILDING BLOCKS FROM PROLINE” (INVISTA North America S.á r.l., priority 2013, published 2015).
# Assays:
# diamine transaminase = details: Kim, 1964; cited from earlier work
# [1] = target: T1, carboxylate reductase of SEQ ID NO: 1 (Mycobacterium marinum, UniProt B2HN69); experiment: carboxylate reductase activity, 5-hydroxypentanoate to 5-hydroxypentanal; type: biochemical; details: SEQ ID NO 1, enhanced by sfp gene product; 1 mM ATP, 1 mM NADPH, pH 7.5, room temperature, 20 min; FIG. 12
# T1 construct: His-tag (N); made in house; host or cells: E. coli BL21[DE3], pET Duet
# T1 sequence (B2HN69 whole entry): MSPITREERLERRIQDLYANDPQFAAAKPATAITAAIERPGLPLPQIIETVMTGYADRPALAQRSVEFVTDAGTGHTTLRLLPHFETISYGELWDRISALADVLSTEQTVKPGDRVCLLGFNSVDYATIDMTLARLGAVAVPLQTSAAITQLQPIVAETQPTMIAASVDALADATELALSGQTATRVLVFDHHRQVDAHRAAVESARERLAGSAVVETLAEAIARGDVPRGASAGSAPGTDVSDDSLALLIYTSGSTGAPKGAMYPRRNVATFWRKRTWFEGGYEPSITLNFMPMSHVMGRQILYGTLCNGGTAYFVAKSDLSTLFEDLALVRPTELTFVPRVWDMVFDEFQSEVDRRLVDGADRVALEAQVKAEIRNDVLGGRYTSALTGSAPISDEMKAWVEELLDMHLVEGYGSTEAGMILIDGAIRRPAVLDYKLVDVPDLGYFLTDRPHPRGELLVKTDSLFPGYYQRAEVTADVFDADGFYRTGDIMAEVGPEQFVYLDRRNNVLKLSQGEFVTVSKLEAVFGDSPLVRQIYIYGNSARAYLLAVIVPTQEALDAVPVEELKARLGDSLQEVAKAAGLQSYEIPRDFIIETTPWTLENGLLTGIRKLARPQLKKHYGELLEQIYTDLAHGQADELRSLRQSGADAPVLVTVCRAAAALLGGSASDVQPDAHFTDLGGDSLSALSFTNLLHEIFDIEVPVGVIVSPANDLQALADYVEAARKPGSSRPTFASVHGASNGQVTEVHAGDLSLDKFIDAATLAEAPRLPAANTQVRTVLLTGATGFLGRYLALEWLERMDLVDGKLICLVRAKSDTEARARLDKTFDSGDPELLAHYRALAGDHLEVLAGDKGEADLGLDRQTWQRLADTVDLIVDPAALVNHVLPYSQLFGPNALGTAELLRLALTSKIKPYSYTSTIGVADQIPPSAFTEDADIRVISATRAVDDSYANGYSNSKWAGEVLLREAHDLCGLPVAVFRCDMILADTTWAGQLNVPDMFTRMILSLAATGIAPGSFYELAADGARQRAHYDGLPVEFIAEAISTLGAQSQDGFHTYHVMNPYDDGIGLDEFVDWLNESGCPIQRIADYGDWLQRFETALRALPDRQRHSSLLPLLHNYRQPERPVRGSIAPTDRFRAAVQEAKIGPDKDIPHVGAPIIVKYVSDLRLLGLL
# Procedure: (§1) A sequence encoding a His-tag was added to the genes from Mycobacterium marinum, Mycobacterium smegmatis, Segniliparus rugosus, Mycobacterium massiliense, and Segniliparus rotundus that encode the carboxylate reductases of SEQ ID NOs: 1, 2, 3, 5 and 6, respectively (see FIG. 7) such that N-terminal HIS tagged carboxylate reductases could be produced. Each of the modified genes was cloned into a pET Duet expression vector alongside a sfp gene encoding a His-tagged phosphopantetheine transferase from Bacillus subtilis, both under control of the T7 promoter.
# (§2) Each expression vector was transformed into a BL21[DE3] E. coli host and the resulting recombinant E. coli strains were cultivated at 37° C. in a 250 mL shake flask culture containing 50 mL LB media and antibiotic selection pressure, with shaking at 230 rpm. Each culture was induced overnight at 37° C. using an auto-induction media.
# (§3) The pellet from each induced shake flask culture was harvested via centrifugation. Each pellet was resuspended and lysed via sonication. […]
# (§4) Enzyme activity (i.e., 5-hydroxypentanoate to 5-hydroxypentanal) assays were performed in triplicate in a buffer composed of a final concentration of 50 mM HEPES buffer (pH=7.5), 2 mM 5-hydroxypentanal, 10 mM MgCl2, 1 mM ATP, and 1 mM NADPH. […] The consumption of NADPH was monitored by absorbance at 340 nm.
# [2] = system: carboxylate reductase of SEQ ID NO: 2; experiment: as above; type: biochemical, Mycobacterium smegmatis; details: SEQ ID NO 2, enhanced by sfp gene product; 1 mM ATP, 1 mM NADPH, pH 7.5, room temperature, 20 min; FIG. 12
# Procedure: as §1, §2, §3, §4
# [3] = system: carboxylate reductase of SEQ ID NO: 3; experiment: as above; type: biochemical, Segniliparus rugosus; details: SEQ ID NO 3, enhanced by sfp gene product; 1 mM ATP, 1 mM NADPH, pH 7.5, room temperature, 20 min; FIG. 12
# Procedure: as §1, §2, §3, §4
# [4] = system: carboxylate reductase of SEQ ID NO: 5; experiment: as above; type: biochemical, Mycobacterium massiliense; details: SEQ ID NO 5, enhanced by sfp gene product; 1 mM ATP, 1 mM NADPH, pH 7.5, room temperature, 20 min; FIG. 12
# Procedure: as §1, §2, §3, §4
# [5] = system: carboxylate reductase of SEQ ID NO: 6; experiment: as above; type: biochemical, Segniliparus rotundus; details: SEQ ID NO 6, enhanced by sfp gene product; 1 mM ATP, 1 mM NADPH, pH 7.5, room temperature, 20 min; FIG. 12
# Procedure: as §1, §2, §3, §4
# [6] = system: reversible 5-aminovalerate transaminase; details: Barker et al., J. Biol. Chem., 1987; cited from earlier work
# [7] = system: reversible ω-transaminase (SEQ ID NO: 7); details: Kaulmann et al., 2007; cited from earlier work
# [8] = system: reversible 4-aminobubyrate:2-oxoglutarate transaminase; details: Yonaha et al., Eur. J. Biochem., 1985; cited from earlier work
# [9] = system: ω-transaminase of SEQ ID NO: 9; experiment: ω-transaminase activity, glutarate semialdehyde to 5-aminopentanoate (reverse direction); type: biochemical, Pseudomonas syringae; details: cell free extract; 10 mM glutarate semialdehyde, 10 mM L-alanine, pH 7.5, 25° C., 4 h; RP-HPLC; FIG. 9
# Procedure: A sequence encoding an N-terminal His-tag was added to the genes from Chromobacterium violaceum and Pseudomonas syringae encoding the ω-transaminases of SEQ ID NOs: 7 and 9, respectively (see FIG. 7) such that N-terminal HIS tagged ω-transaminases could be produced. Each of the resulting modified genes was cloned into a pET21a expression vector under control of the T7 promoter and each expression vector was transformed into a BL21[DE3] E. coli host. The resulting recombinant E. coli strains were cultivated at 37° C. in a 250 mL shake flask culture containing 50 mL LB media and antibiotic selection pressure, with shaking at 230 rpm. Each culture was induced overnight at 16° C. using 1 mM IPTG.
# The pellet from each induced shake flask culture was harvested via centrifugation. Each pellet was resuspended and lysed via sonication. The cell debris was separated from the supernatant via centrifugation and the cell free extract was used immediately in enzyme activity assays.
# Enzyme activity in the reverse direction (i.e., glutarate semialdehyde to 5-aminopentanoate) were performed in a buffer composed of a final concentration of 50 mM HEPES buffer (pH=7.5), 10 mM glutarate semialdehyde, 10 mM L-alanine and 100 μM pyridoxyl 5′ phosphate. […] The formation of pyruvate was quantified via RP-HPLC.
# [10] = system: carboxylate reductase of SEQ ID NO 6; experiment: carboxylate reductase activity, glutarate semialdehyde to pentanedial; type: biochemical, Segniliparus rotundus; details: SEQ ID NO 6, enhanced by sfp gene product; 2 mM glutarate semialdehyde, 1 mM ATP, 1 mM NADPH, pH 7.5, room temperature, 20 min; FIG. 15
# Procedure: The N-terminal His-tagged carboxylate reductase of SEQ ID NO 6 (see Example 2 and FIG. 7) was assayed using glutarate semialdehyde as substrate. The enzyme activity assay was performed in triplicate in a buffer composed of a final concentration of 50 mM HEPES buffer (pH=7.5), 2 mM glutarate semialdehyde, 10 mM MgCl2, 1 mM ATP and 1 mM NADPH. The enzyme activity assay reaction was initiated by adding purified carboxylate reductase and phosphopantetheine transferase or the empty vector control to the assay buffer containing the glutarate semialdehyde and then incubated at room temperature for 20 min. The consumption of NADPH was monitored by absorbance at 340 nm.
smiles,measurement,setting,value
"NCCCCCCCN [1,7 diaminoheptane]",diamine transaminase activity,diamine transaminase,demonstrated activity
O=C(O)CCCCO [5-hydroxypentanoate],"acceptance as substrate (consumption of NADPH, absorbance at 340 nm) vs empty vector control",[1],accepted 5-hydroxypentanoate as substrate
same,"acceptance as substrate (consumption of NADPH, absorbance at 340 nm) vs empty vector control",[2],accepted 5-hydroxypentanoate as substrate
same,"acceptance as substrate (consumption of NADPH, absorbance at 340 nm) vs empty vector control",[3],accepted 5-hydroxypentanoate as substrate
same,"acceptance as substrate (consumption of NADPH, absorbance at 340 nm) vs empty vector control",[4],accepted 5-hydroxypentanoate as substrate
same,"acceptance as substrate (consumption of NADPH, absorbance at 340 nm) vs empty vector control",[5],accepted 5-hydroxypentanoate as substrate
NCCCCCC(=O)O [6-aminohexanoate],activity for the conversion to adipate semialdehyde,[6],demonstrated analogous activity
same,activity accepting as amino donor,[7],demonstrated analogous activity
same,activity for the conversion to adipate semialdehyde,[8],demonstrated analogous activity
O=CCCCC(=O)O [glutarate semialdehyde],acceptance as substrate (conversion of L-alanine to pyruvate) vs empty vector control,[9],accepted glutarate semialdehyde as substrate
same,"acceptance as substrate (consumption of NADPH, absorbance at 340 nm) vs empty vector control",[10],accepted glutarate semialdehyde as substrate
